Test results from patent publication US20180236105A1, “METHODS FOR TREATING NEURODEGENERATIVE DISEASES USING GENE THERAPY TO DELAY DISEASE ONSET AND PROGRESSION WHILE PROVIDING COGNITIVE PROTECTION” (UNIVERSITY OF IOWA RESEARCH FOUNDATION, priority 2015, published 2018).

B1: recombinant human TPP1: recombinant human TPP1 infused into the lumbar subarachnoid space or lateral ventricle (Vuillemenot et al., 2015) (protein, UniProt O14773 196-563, looked up)
Tripeptidyl-peptidase 1: LHLGVTPSVIRKRYNLTSQDVGSGTSNNSQACAQFLEQYFHDSDLAQFMRLFGGNFAHQASVARVVGQQGRGRAGIEASLDVQYLMSAGANISTWVYSSPGRHEGQEPFLQWLMLLSNESALPHVHTVSYGDDEDSLSSAYIQRVNTELMKAAARGLTLLFASGDSGAGCWSVSGRHQFRPTFPASSPYVTTVGGTSFQEPFLITNEIVDYISGGGFSNVFPRPSYQEEAVTKFLSSSPHLPPSSYFNASGRAYPDVAALSDGYWVVSNRVPIPWVSGTSASTPVFGGILSLINEHRILSGRPPLGFLNPRLYQQHGAGLFDVTRGCHESCLDEEVEGQGFCSGPGWDPVTGWGTPNFPALLKTLLNP

Legend:
CLN2−/− dogs = test: Cerebrospinal fluid TPP1 enzyme activity assay; format: in vivo, dog; settings: for CSF TPP1 activity after introduction of MMF: with cyclosporine and rAAV.caTPP1
Description: Long-haired miniature Dachshunds were bred and housed at the University of Missouri in facilities overseen by the Office of Animal Resources (OAR). TPP1-null animals were generated from heterozygous breeding (Awano, 2006). All puppies were genotyped by PCR. In addition to the standard care provided by the OAR, the dogs were socialized on a daily basis throughout the study. All procedures involving dogs were reviewed and approved by the University of Missouri Animal Care and Use Committee and conformed to the National Institutes of Health Guide for the Care and Use of Laboratory Animals. Intraventricular infusions were performed over 25 minutes using the Brainsight™ neuronavigation system equipped with a 26 gauge 12 cm needle. Cyclosporine 10 mg/kg twice daily by mouth was administered to all of the dogs in this study starting one to two weeks prior to the gene therapy vector administration. The dose was gradually tapered after 2 months to once daily, which was continued for the duration of the study. A 10-20 mg/kg daily dose by mouth of mycophenolate mofetil (MMF) was instituted, as indicated in the results, and tapered after 2 to several months depending on tolerability.
TPP1 activity was assayed via a modification of previously described methods (Chang et al., 2008; Tian et al., 2006). Samples were homogenized in 300 μl ice-cold homogenization buffer (0.1% Triton X-100 in normal saline with complete protease inhibitor cocktail, Roche, Mannheim, Germany). Insoluble material was removed by centrifugation at 21×10^3 rcf at 4° C.×15 minutes, and protein quantified by DC Protein Assay (Biorad, Hercules, Calif.). […] Plates were read in a Safire 2 microplate reader (Tecan., Mannedorf, Switzerland) at 37° C. using the 460-nm emission filter. […]
Samples were concentrated 3.5-fold using Amicon Ultra-0.5 Centrifugal filter (Ultracel-10K. Millipore Corporation) at 21×10^3 rcf for 5 minutes at 4° C. Activated TPP1 was quantified as in tissue samples.

[1] = system: Cln2−/− mouse embryo fibroblast cells; test: caTPP1 neutralization antibody assay (NAbs in dog CSF/serum); format: cell-based
Experimental: To assess neutralizing Abs (Nabs) in CSF, Cln2−/− mouse embryo fibroblast cells were used. Sixteen hours before the assay, 1.0×10^5 cells/well were plated onto 24 wells plate the day before, and dog CSF was heat inactivated at 56° C. for 30 minutes, diluted 1:10, and then pre-incubated with 1.75 nM of TPP1 at 37° C. for one hour. The mixture was applied to cells for three hours at 37° C. after which the cells were washed with 37° C. HBSS (Ca^2+ and Mg^2+) and then homogenized in 100 μl of ice cold homogenization buffer-0.1% TritonX-100 in normal saline with complete protease inhibitor cocktail (Roche, Mannheim, Germany). Insoluble material was removed by centrifugation at 21×10^3 rcf at 4° C. for 10 minutes and TPP1 activity detected as described above. The results were calculated as percentage of activity obtained from CSF collected prior to vector administration.

dog disease model = settings: cited from earlier work
[2] = MMF 5 days prior to rAAV.caTPP1 delivery, DC018

| Molecule | CSF TPP1 activity (CLN2−/− dogs; [2]) | CSF TPP1 activity after introduction of MMF (CLN2−/− dogs; MMF by 33 days post-vector, DC015, DC016) | CSF TPP1 activity after introduction of MMF (CLN2−/− dogs; MMF from 44 days post-vector, DC013, DC014) | anti-TPP1 antibodies [1, 2] | anti-TPP1 immune responses ([1]; MMF at the time of or before AAV delivery) | anti-TPP1 Ab titers ([1]; MMF by 33 days post-vector, with cyclosporine and rAAV.caTPP1) | anaphylactic reactions (dog disease model; bolus infusion) | immune responses to recombinant protein (dog disease model; infused into the lumbar subarachnoid space or lateral ventricle) |
| --- | --- | --- | --- | --- | --- | --- | --- | --- |
| COc1c(C)c2c(c(O)c1C/C=C(\C)CCC(=O)OCCN1CCOCC1)C(=O)OC2 [MMF, mycophenolate mofetil] | robust and sustained | increase in CSF TPP1 activity | did not result in a recovery of TPP1 activity | did not appear | reduced, inhibited or dramatically delayed | reduction in anti-TPP1 Ab titers |  |  |
| B1 |  |  |  |  |  |  | Anaphylactic reactions were noted | robust anti-TPP1 responses |
